pIC50: −log10 of the molar value. Read-outs that look alike come from different tables or passages of the source.
Assays:
CCRF-CEM = assay: XTT cytotoxicity assay, CCRF-CEM cells; type: cell-based, human; settings: for pIC50: Homo sapiens, CCRF-CEM
Experimental: (§1) XTT assay following 72 h inhibition. CCRF-CEM is a human T-cell acute lymphoblastic leukemia cell line. The CCRF-CEM/VBL100, CCRF-CEM/VM1, and CCRF-CEM/Taxol cell lines all overexpress P-glycoprotein and display a multidrug resistance phenotype to MDR-associated oncolytics. (Chou et al. Proc. Natl. Acad. Sci. USA 98:8113, 2001; incorporated herein by reference).
(§2) A typical experiment invovles culturing cells (e.g., CCRF-CEM) at an initial density of 2-5×10^4 cells per ml. They are maintained in a 5% CO2-humidified atmosphere at 37° C. in RPMI medium 1640 (GIBCO/BRL) containing penicillin (100 units/ml), streptomycin (100 μg/ml) (GIBCO/BRL), and 5% heat-inactivated fetal bovine serum. For cells that were grown in suspension (such as CCRF-CEM and its sublines), cytotoxicitiy is measured by using the 2,-3-bis(2-methoxy-4-nitro-5-sulfophenyl)-5 carboxanilide)-2H terazodium hydroxide (XTT)-microculture tetrazonium method in duplicate in 96-well microtiter plates. For both methods, the absorbance of each well is measured with a microplate reader (EL-340, Bio-Tek, Burlington, Vt.). Each run entails six or seven concentrations of the tested drugs. Dose-effect relationship data are analyzed with the median-effect plot.
(§3) The CCRF-CEM human T cells, acute lymphoblastic leukemic cells, its teniposide-resistant subline (CCRF-CEM/VM1) and vinblastine-resistant subline (CCRF-CEM/VBL100) are obtained from W. T. Beck (University of Illinois, Chicago, Ill.).

CCRF-CEM/VBL100 = assay: XTT cytotoxicity assay, vinblastine-resistant CCRF-CEM/VBL100 cells; type: cell-based, human; settings: Homo sapiens, CCRF-CEM
Experimental: as §1, §2, §3

[1] = system: human mammary carcinoma MX-1; assay: Tumor xenograft in nude mice, 6 hr i.v. infusion; type: in vivo; settings: as compared to control mice, MX-1 xenograft, listed as epothilone 490
Experimental: Athymic nude mice bearing the nu/nu gene are typically used for tumor xenografts. Outbred, Swiss-background mice were obtained from Charles River Laboratories. Male mice 8 weeks or older weighing 22 g and up were used for most experiments. The drug was administered via the tail vein for 6 hr.—i.v. infusion. Each individual mouse was confined in a perforated Falcon polypropylene tube restrainer for drug administration. Tumor volume was assessed by measuring length×width×height (or width) using a caliper. The programmable Harvard PHD2000 syringe pump (Harvard Apparatus) with multi-track was used for i.v. infusion. All animal studies were conducted in accordance with the guidelines of the National Institutes of Health “Guide for the Care and Use of Animals” and the protocol approved by the Memorial Sloan-Kettering Cancer Center's Institutional Animal Care and Use Committee. In keeping with the policy of this committee for the humane treatment of tumor-bearing animals, mice were euthanized when tumors reached ≧10% of their total body weight.
As depicted in FIGS. 14, 15, 16, and 17, Epo490 was tested in nude mice bearing human mammary carcinoma MX-1 following treatment with Epo490 or dEpoB (i.v. infusions for 6 hours). […] Tumor size and body weight were then measured using dosages of 30 mg/kg, 40 mg/kg or 50 mg/kg over 32 and 50 days.

[2] = Stability on exposure to human plasma; type: in vitro ADME
Source text: (§4) See Chou et al. Proc. Natl. Acad. Sci. USA 98:8113, 2001, incorporated herein by reference, for details.
(§5) However, the apparently disappointing murine in vivo results should be viewed in the context of reports that dEpoB itself evidenced a degree of bioinstability in murine plasma; yet had much longer plasma half-lives in higher organisms, including humans (Chou et al. J. Proc. Natl. Acad. Sci. USA 98:8113, 2001; incorporated herein by reference). The observed discrepancy in efficacy between mice and other mammals, including humans, has been ascribed to higher esterase levels in rodents.

CCRF-CEM/VM1 = assay: XTT cytotoxicity assay, teniposide-resistant CCRF-CEM/VM1 cells; type: cell-based, human; settings: Homo sapiens, CCRF-CEM
Experimental: as §1, §2, §3

[3] = Stability on exposure to murine plasma; type: in vitro ADME; settings: as compared to dEpoB (FIG. 21)
Source text: as §4, §5

CCRF-CEM/Taxol = assay: XTT cytotoxicity assay, taxol-resistant CCRF-CEM/Taxol cells; type: cell-based, human; settings: for pIC50: Homo sapiens, CCRF-CEM
Experimental: as §1, §2

tubulin = assay: Tubulin binding: formation of microtubules in the presence of the compounds; type: biochemical
Source text: Indeed, the microtubule stabilizing ability closely parallels the observed cytotoxicity data.

## CC1=C/C[C@@H](/C(C)=C/c2csc(C)n2)OC(=O)C[C@H](O)C(C)(C)C(=O)[C@H](C)[C@@H](O)[C@@H](C)C\C=C\1 [Epo490, 10,11-dehydro-12,13-desoxyepothilone B]
CCRF-CEM; Example 12, in words
  activity in CCRF-CEM cell lines: demonstrated activity
CCRF-CEM; Example 5 Table 1, 72 h inhibition, read-out: In vitro Cytotoxicities (IC50) CCRF-CEM(C)
  pIC50: 7.60
CCRF-CEM; Example 9 table, read-out: Cell Growth Inhibition (IC50) CCRF-CEM
  pIC50: 8.05
CCRF-CEM; Example 11 Table 2, XTT assay following 72-h inhibition, read-out: In Vitro Cytotoxicities (IC50) CCRF-CEM
  pIC50: 7.60
CCRF-CEM/VBL100; Example 5 Table 1, 72 h inhibition, read-out: In vitro Cytotoxicities (IC50) C/VBL100
  pIC50: 7.04
CCRF-CEM/VBL100; Example 9 table, read-out: Cell Growth Inhibition (IC50) CCRF-CEM/VBL
  pIC50: 7.64
CCRF-CEM/VBL100; Example 11 Table 2, XTT assay following 72-h inhibition, read-out: In Vitro Cytotoxicities (IC50) CCRF-CEM/VBL100
  pIC50: 7.04
[1]
  inhibitory effect on the growth of the implanted tumors: did not demonstrate a statistically significant inhibitory effect
[2]; FIG. 21 legend
  stability in human versus nude mice plasma: increased stability
[2]; after more than 3 hours of exposure in human plasma
  degradation in human plasma: no measurable degradation
CCRF-CEM/VM1; Example 5 Table 1, 72 h inhibition, read-out: In vitro Cytotoxicities (IC50) C/VM1
  pIC50: 7.46
CCRF-CEM/VM1; Example 11 Table 2, XTT assay following 72-h inhibition, read-out: In Vitro Cytotoxicities (IC50) CCRF-CEM/VMI
  pIC50: 7.46
[3]
  degradation in murine plasma: faster degradation
CCRF-CEM/Taxol; Example 12, in words
  activity in CCRF-CEM cell lines resistant to Taxol: demonstrated activity
CCRF-CEM/Taxol; Example 5 Table 1, 72 h inhibition, read-out: In vitro Cytotoxicities (IC50) C/Taxol
  pIC50: 7.49
CCRF-CEM/Taxol; Example 9 table, read-out: Cell Growth Inhibition (IC50) CCRF-CEM/taxol
  pIC50: 7.89
CCRF-CEM/Taxol; Example 11 Table 2, XTT assay following 72-h inhibition, read-out: In Vitro Cytotoxicities (IC50) CCRF-CEM/TAXOL
  pIC50: 7.49
tubulin; Example 5 Table 1
  % Tubulin Binding: 89%
tubulin; Microtubules formed in the presence of dEpoB is defined as 100%
  % Tubulin Binding: 89%

Reference: patent US20030176368A1, “Synthesis of epothilones, intermediates thereto and analogues thereof” (priority 2001, published 2003)
